Measured values as given in patent US20150110907A1, “METHOD OF TESTING THE ACTIVITY OF A POTENTIALLY ACTIVE SUBSTANCE TO INHIBIT THE ENZYMATIC ACTIVITY OF PHOSPHOLIPASE A2” (BASF Beauty Care Solutions France S.A.S., priority 2002, published 2015).
Where two headings read alike, the source gives them in different places. One block for each compound: values may come before it.

Target: T1, PLA2 of type I originating from pig pancreas (Sus scrofa, UniProt P00592)
T1 construct: originates from pig pancreas (enzyme of type I); from tissue; host or cells: pig pancreas
Test: Acellular in vitro inhibition of PLA2 of type I, determination of free fatty acids
Type: biochemical
Details: for Inhibition (%) Product diluted at 1/100 in demineralized water: initial solution diluted at 1/100 in demineralized water; for inhibition at 1000 µM: 1 mM; for Inhibition by substance tested pure (%): percentage inhibition with respect to the control
Procedure: The study of the inhibition of phospholipase A2 (PLA2) is carried out in an acellular in vitro model which aims to be a reflection, near as possible, of the situation encountered in vivo.
The PLA2s of type I and of type II are used in vitro, in a model comprising: • 1) a substrate selected from the ester derivatives of arachidonic acid (such as β-arachidonoyl γ-palmitoyl L-α-phosphatidylcholine, which is a phospholipid containing arachidonic acid in SN2 position, site hydrolyzed by the phospholipase A2) which specifically is the fatty add involved in the synthesis of the mediators of the inflammation, • 2) a bivalent ion, playing the role of catalyst (such as calcium), • 3) an activator, which is indispensable for the activity of the enzyme, playing the role of solubilizer of the substrate in the reaction medium and enabling promoting the enzyme-substrate interaction (preferably sodium deoxycholate).
The enzyme in the presence of its cofactor is incubated for a determined period of time (e.g. about 15 minutes) with the inhibitor, and then a second incubation is carried out for (e.g. about 20 minutes) in the presence of the substrate which is preferably β-arachidonoyl γ-palmitoyl L-α-phosphatidylcholine and of the activator, which is preferably sodium deoxycholate.
At the end of this incubation, a determination of the non-esterified fatty acids is made on the reaction medium by an enzymatic technique that it is for example possible to follow by colorimetry at a defined wavelength.
In parallel, a control corresponding to the activity of the phospholipase A2 in the absence of inhibitor is carried out.
The PLA2 in aqueous solution (35 Units/ml), is placed in the presence of 3 mM β-arachidonoyl γ-palmitoyl L-α-phosphatidylcholine, which is a phospholipid containing, in SN2 position, site hydrolyzed by the phospholipase A2, arachidonic add, which is specifically an important fatty acid involved in the synthesis of the mediators of inflammation,
a) the enzyme in the presence of the cofactor (calcium) is incubated for 15 minutes at ambient temperature (20° C.) with the inhibitor;
b) then, a second incubation of 20 minutes is made in the presence of β-arachidonoyl γ-palmitoyl L-α-phosphatidylcholine (3 mM) and sodium deoxycholate (1.6 mM).
At the end of this incubation, a determination of the free fatty acids, thus non-esterified free fatty acids, is made on the reaction medium by a classical enzymatic technique which is well-known to the person skilled in the art, that it is possible to follow by colorimetry, e.g. here at 550 nm,
The anti-PLA2 activity of increasing concentrations of the product selected was measured over three different batches of starting material. Each determination was made in triplicate, […]

[1] = non-diluted, initial concentrations: aristolochic acid 2 mM, p-bromophenacyl bromide 10 mM, nordihydroguaiaretic acid 5 mM
[2] = Table VII, read-out: percentage inhibition with respect to control
[3] = Table VII, 10 mM, read-out: percentage inhibition with respect to control

T1 sequence (P00592 23-146): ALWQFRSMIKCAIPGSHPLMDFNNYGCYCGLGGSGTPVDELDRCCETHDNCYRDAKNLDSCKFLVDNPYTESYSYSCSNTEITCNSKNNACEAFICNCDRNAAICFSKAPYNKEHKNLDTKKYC

Compound: COc1cccc2c1cc([N+](=O)[O-])c1c(C(=O)O)cc3c(c12)OCO3 [Aristolochic acid, 8-methoxy-6-nitrophenanthro(3,4-d)-1,3-dioxole-5-carboxylic acid]
- Inhibition (%) Product diluted at 1/100 in demineralized water: 10.00% ± 3.4
- Inhibition (%) Product diluted at 1/1000 in demineralized water (initial solution diluted at 1/1000 in demineralized water): 0.25% ± 0.5
- Inhibition (%) Non-diluted product [1]: 96.2% ± 1.04

- inhibition at 1000 µM [2]: 3.5%
- inhibition at 10000 µM [3]: 7%
Compound: CC(=O)Oc1ccccc1C(=O)O [Aspirin]

- percentage inhibition with respect to control (Table VII, 10 mM): 0%
Compound: C[C@]12CCC(=O)C=C1CC[C@@H]1[C@@H]2C(=O)C[C@@]2(C)[C@H]1CC[C@]2(O)C(=O)CO [Cortisone]

- inhibition at 1000 µM [2]: 8%
- inhibition at 10000 µM [3]: 29.8%
Compound: O=C(O)Cc1ccccc1Nc1c(Cl)cccc1Cl [Diclofenac]

- inhibition at 10000 µM [3]: 4.5%
Compound: C[C@]12CCC(=O)C=C1CC[C@@H]1[C@@H]2[C@@H](O)C[C@@]2(C)[C@H]1CC[C@]2(O)C(=O)CO [Hydrocortisone]

- inhibition at 1000 µM [2]: 6.9%
- inhibition at 10000 µM [3]: 40.3%
Compound: CC(C)Cc1ccc(C(C)C(=O)O)cc1 (centres unmarked) [Ibuprofen]

- inhibition at 1000 µM [2]: 0%
- inhibition at 10000 µM [3]: 25.7%
Compound: COc1ccc2c(c1)c(CC(=O)O)c(C)n2C(=O)c1ccc(Cl)cc1 [Indomethacin]

- inhibition at 10000 µM [3]: 6.3%
Compound: C[C@]12C=CC(=O)C=C1CC[C@@H]1[C@@H]2[C@@H](O)C[C@@]2(C)[C@H]1CC[C@]2(O)C(=O)CO [Prednisolone]

- inhibition of the PLA2 (commercial 1% genistein solution): 28.79%
Compound: O=c1c(-c2ccc(O)cc2)coc2cc(O)cc(O)c12 [genistein]

- Inhibition (%) Product diluted at 1/100 in demineralized water: 8.8% ± 0.8
- Inhibition (%) Non-diluted product [1]: 97.3% ± 13.2
Compound: CC(Cc1ccc(O)c(O)c1)C(C)Cc1ccc(O)c(O)c1 (centres unmarked) [nordihydroguaiaretic acid]

Compound: O=C(CBr)c1ccc(Br)cc1 [p-bromophenacyl bromide]
- Inhibition (%) Product diluted at 1/100 in demineralized water: 4.5% ± 2.3
- inhibition at 10000 µM (non-diluted, initial concentrations: aristolochic acid 2 mM, p-bromophenacyl bromide 10 mM, nordihydroguaiaretic acid 5 mM, read-out: Inhibition (%) Non-diluted product): 29.9%

Compound: Magnesium gluconate
- Inhibition by substance diluted at 1% in demineralized water (%): 0%
- Inhibition by substance tested pure (%): 3.4%

Compound: Zinc gluconate
- Inhibition by substance diluted at 1% in demineralized water (%): 12.6%
- Inhibition by substance tested pure (%): 50%
